# From patent US8008298B2, “Pyrrolopyrazine kinase inhibitors” (Roche Palo Alto, priority 2008, dated 2011)
row,SMILES,melting point [°C]
1,"CC(C)(C)C(=O)c1c[nH]c2ncc(-c3cccc(CN)c3)nc12 [Example 149, 1-[2-(3-Aminomethyl-phenyl)-5H-pyrrolo[2,3-b]pyrazin-7-yl]-2,2-dimethyl-propan-1-one]",176 to 178
2,"CC(C)(C)C(=O)c1c[nH]c2ncc(-c3cccc(CN4CCCCC4)c3)nc12 [Example 150, 2,2-Dimethyl-1-[2-(3-piperidin-1-ylmethyl-phenyl)-5H-pyrrolo[2,3-b]pyrazin-7-yl]-propan-1-one]",176 to 177
3,"CC(C)(C)C(=O)c1c[nH]c2ncc(-c3ccccc3O)nc12 [Example 152, 1-[2-(2-Hydroxy-phenyl)-5H-pyrrolo[2,3-b]pyrazin-7-yl]-2,2-dimethyl-propan-1-one]",282 to 283
4,"COc1cccc(-c2cnc3[nH]cc(C(=O)C4(C)CCCCC4)c3n2)c1 [Example 157, [2-(3-Methoxy-phenyl)-5H-pyrrolo[2,3-b]pyrazin-7-yl]-(1-methyl-cyclohexyl)-methanone]",173 to 175
5,"CN(C)c1ccc(-c2cnc3[nH]cc(C(=O)C4(C)CCCCC4)c3n2)cc1 [Example 158, [2-(4-Dimethylamino-phenyl)-5H-pyrrolo[2,3-b]pyrazin-7-yl]-(1-methyl-cyclohexyl)-methanone]",272 to 274
6,"CC1(C(=O)c2c[nH]c3ncc(-c4cccc(N5CCCC5)c4)nc23)CCCCCC1 [Example 160, (1-Methyl-cycloheptyl)-[2-(3-pyrrolidin-1-yl-phenyl)-5H-pyrrolo[2,3-b]pyrazin-7-yl]-methanone]",192 to 193
7,"COc1cc(-c2cnc3[nH]cc(C(=O)C45CC6CC(CC(C6)C4)C5)c3n2)cc(OC)c1OC [Example 162, Adamantan-1-yl-[2-(3,4,5-trimethoxy-phenyl)-5H-pyrrolo[2,3-b]pyrazin-7-yl]-methanone]",267 to 268
8,"CC1(C(=O)c2c[nH]c3ncc(Br)nc23)CCCC1 [Example 166, (2-Bromo-5H-pyrrolo[2,3-b]pyrazin-7-yl)-(1-methyl-cyclopentyl)-methanone]",206.9 to 207.9
9,"CC1(C(=O)c2c[nH]c3ncc(-c4cccc(N5CCCC5)c4)nc23)CCCC1 [Example 167, (1-Methyl-cyclopentyl)-[2-(3-pyrrolidin-1-yl-phenyl)-5H-pyrrolo[2,3-b]pyrazin-7-yl]-methanone]",242 to 243
10,"COc1cc(-c2cnc3[nH]cc(C(=O)C4(C)CCCC(C)C4)c3n2)cc(OC)c1OC (centres unmarked) [Example 169, (1,3-Dimethyl-cyclohexyl)-[2-(3,4,5-trimethoxy-phenyl)-5H-pyrrolo[2,3-b]pyrazin-7-yl]-methanone]",229 to 231
11,"CNc1ccc(-c2cnc3[nH]cc(C(=O)C4(C)CCCCC4)c3n2)cc1 [Example 171, [2-(4-Methylamino-phenyl)-5H-pyrrolo[2,3-b]pyrazin-7-yl]-(1-methyl-cyclohexyl)-methanone]",273 to 275
12,"CCN(CC)c1ccc(-c2cnc3[nH]cc(C(=O)C4(C)CCCCC4)c3n2)cc1 [Example 173, [2-(4-Diethylamino-phenyl)-5H-pyrrolo[2,3-b]pyrazin-7-yl]-(1-methyl-cyclohexyl)-methanone]",211 to 213
13,"CC1(C(=O)c2c[nH]c3ncc(-c4ccc(N5CCCCC5)cc4)nc23)CCCCC1 [Example 174, (1-Methyl-cyclohexyl)-[2-(4-piperidin-1-yl-phenyl)-5H-pyrrolo[2,3-b]pyrazin-7-yl]-methanone]",234 to 236
14,"CC(C)(C)OC(=O)N1CCN(c2cccc(-c3cnc4[nH]cc(C(=O)C5(C)CCCCC5)c4n3)c2)CC1 [Example 175, 4-{3-[7-(1-Methyl-cyclohexanecarbonyl)-5H-pyrrolo[2,3-b]pyrazin-2-yl]-phenyl}-piperazine-1-carboxylic acid tert-butyl ester]",212 to 213
15,"CC1(C(=O)c2c[nH]c3ncc(-c4cccc(N5CCN(C(=O)C6CCNCC6)CC5)c4)nc23)CCCCC1 [Example 180, (1-Methyl-cyclohexyl)-(2-{3-[4-(piperidine-4-carbonyl)-piperazin-1-yl]-phenyl}-5H-pyrrolo[2,3-b]pyrazin-7-yl)-methanone]",> 300
16,"CC1(C(=O)c2c[nH]c3ncc(-c4cccc(N5CCN(S(C)(=O)=O)CC5)c4)nc23)CCCCC1 [Example 181, {2-[3-(4-Methanesulfonyl-piperazin-1-yl)-phenyl]-5H-pyrrolo[2,3-b]pyrazin-7-yl}-(1-methyl-cyclohexyl)-methanone]",230 to 231
17,"CC1(C(=O)c2c[nH]c3ncc(-c4cccc(N5CCN(S(N)(=O)=O)CC5)c4)nc23)CCCCC1 [Example 183, 4-{3-[7-(1-Methyl-cyclohexanecarbonyl)-5H-pyrrolo[2,3-b]pyrazin-2-yl]-phenyl}-piperazine-1-sulfonic acid amide]",233 to 235

# Results, then the molecule that gave them:
row,melting point [°C],SMILES
1,202 to 203,"CC(C)(C)C(=O)c1c[nH]c2ncc(-c3cccc(CCO)c3)nc12 [Example 148, 1-{2-[3-(2-Hydroxy-ethyl)-phenyl]-5H-pyrrolo[2,3-b]pyrazin-7-yl}-2,2-dimethyl-propan-1-one]"
2,208 to 209,"CC1(C(=O)c2c[nH]c3ncc(-c4cccc(N5CCOCC5)c4)nc23)CCCCC1 [Example 153, (1-Methyl-cyclohexyl)-[2-(3-morpholin-4-yl-phenyl)-5H-pyrrolo[2,3-b]pyrazin-7-yl]-methanone]"
3,234 to 236,"Cc1nnc(-c2cccc(-c3cnc4[nH]cc(C(=O)C5(C)CCCCC5)c4n3)c2)o1 [Example 155, (1-Methyl-cyclohexyl)-{2-[3-(5-methyl-[1,3,4]oxadiazol-2-yl)-phenyl]-5H-pyrrolo[2,3-b]pyrazin-7-yl}-methanone]"
4,80 to 83,"CC1(C(=O)c2c[nH]c3ncc(-c4cccc(CCCO)c4)nc23)CCCCC1 [Example 156, {2-[3-(3-Hydroxy-propyl)-phenyl]-5H-pyrrolo[2,3-b]pyrazin-7-yl}-(1-methyl-cyclohexyl)-methanone]"
5,279 to 280,"O=C(c1c[nH]c2ncc(Br)nc12)C12CC3CC(CC(C3)C1)C2 [Example 161, Adamantan-1-yl-(2-bromo-5H-pyrrolo[2,3-b]pyrazin-7-yl)-methanone]"
6,227 to 229,"COc1cc(-c2cnc3[nH]cc(C(=O)C(C)(C)CO)c3n2)cc(OC)c1OC [Example 165, 3-hydroxy-2,2-dimethyl-1-[2-(3,4,5-trimethoxy-phenyl)-5H-pyrrolo[2,3-b]pyrazin-7-yl]-propan-1-one]"
7,225 to 226,"CN1CCN(c2ccc(-c3cnc4[nH]cc(C(=O)C5(C)CCCCC5)c4n3)cc2)CC1 [Example 170, (1-Methyl-cyclohexyl)-{2-[4-(4-methyl-piperazin-1-yl)-phenyl]-5H-pyrrolo[2,3-b]pyrazin-7-yl}-methanone]"
8,233 to 235,"CC1(C(=O)c2c[nH]c3ncc(-c4ccc(N5CCOCC5)cc4)nc23)CCCCC1 [Example 172, (1-Methyl-cyclohexyl)-[2-(4-morpholin-4-yl-phenyl)-5H-pyrrolo[2,3-b]pyrazin-7-yl]-methanone]"
9,214 to 216,"CC1(C(=O)c2c[nH]c3ncc(-c4cccc(N5CCN(C(=O)CC#N)CC5)c4)nc23)CCCCC1 [Example 178, 3-(4-{3-[7-(1-Methyl-cyclohexanecarbonyl)-5H-pyrrolo[2,3-b]pyrazin-2-yl]-phenyl}-piperazin-1-yl)-3-oxo-propionitrile]"
